Measurements: publication PMC9485191, “The ERK5/NF-κB signaling pathway targets endometrial cancer proliferation and survival” (Cellular and Molecular Life Sciences, 2022)

Legend:
ERK5 [1] = molecular target: T1, ERK5 (Homo sapiens, UniProt Q13164); test: biochemical; parameters: radiometric 32P-ATP kinase assay, active ERK5, PIMtide substrate, p81 paper, Cherenkov counting; conditions: 200 uM ATP
T1 construct: gene MAPK7
Description: Gene silencing Validated siRNAs targeting NEMO were from Sigma (ref. EHU032271) and ThermoFisher (ref. AM51331). Scrambled (control) siRNA was from ThermoFisher. siRNAs were transfected into cells using Lipofectamine-2000, following the manufacturer’s recommended protocol. The vectors encoding two different shRNAs targeting ERK5 were from Sigma (TRCN0000010262/pLKO.1; TRCN0000010275/pLKO.1). Lentiviral production is detailed at Supplementary Materials and Methods. In vitro ERK5 kinase activity assay A 40 μL reaction mixture was prepared containing 200 ng of pure active ERK5 (1) and the indicated amount of inhibitor in 50 mM Tris-HCl, pH 7.5, 0.1 mM EGTA, 1 mM 2-mercaptoethanol. […] Assays were carried out for 20 min at 30°C, terminated by applying the reaction mixture onto p81 paper, and the incorporated radioactivity measured by Cherenkov counting. Most of the ERK5 inhibitors developed so far, including JWG-071, are type I competitive inhibitors that target the ATP-binding site. […] Taking in account that the homeostatic levels of intracellular ATP range from 0.5 to 5 mM [31], it is very likely that ERK5 competitive inhibitors (such as JWG-071) should require µM concentrations to displace ATP from the active site in cells. […]

ERK5 [2] = molecular target: T1, ERK5; test: in vitro (cell-free) kinase assay at […] ATP ([…] at […] ATP); supported by inhibition of EGF-induced ERK5 phosphorylation in cells; format: biochemical
LN-18 (glioblastoma) = test: cells; parameters: MTT reduction cytotoxicity assay in human tumour cell lines; conditions: Homo sapiens, LN-18; 48 h, MTT
Method: (§1) Cell viability was determined by MTT (3-(4,5-dimethyl-2-thiazolyl)-2,5-diphenyl-2H-tetrazolium Blue, Sigma) reduction assay. For clonogenic assays, cells were seeded in 6-well plates, treated for 14 days and stained with 0.5% crystal violet solution. Colonies with > 40 cells were counted. Cell proliferation was measured by cell counting assay, using a TC10TM automated cell counter (Bio-Rad, Hercules, CA, USA) using Trypan Blue. Cell viability was also determined using a LIVE/DEAD viability/cytotoxicity kit assay (ThermoFisher), as reported before. The above results prompted us to investigate the anticancer activity of ERK5 inhibition in EC. To do so, we used the endometrioid cancer cell lines Ishikawa and AN3CA cells (that carry PTEN deficiency and P53 mutation), as well as the more clinically aggressive non-endometrioid serous adenocarcinoma cell line ARK1 (PI3KCA mutation). In cell viability assays, JWG-071 induced cytotoxicity in the three EC cell lines tested, with IC50 values ranging 2–3 µM. In fact, JWG-071 induced cytotoxicity in a wide panel of cancer cells, including prostate, cervical, neuroblastoma, and glioblastoma cancers (Supplementary Fig. 4).

SH-SY5Y (neuroblastoma) = test: cells; parameters: MTT reduction cytotoxicity assay in human tumour cell lines; conditions: Homo sapiens, SH-SY5Y; 48 h, MTT
Method: as §1

Ishikawa (endometrial) = test: cells; parameters: MTT reduction cytotoxicity assay in human tumour cell lines; conditions: Homo sapiens, Ishikawa; 48 h, MTT
Method: as §1

Hela (cervical) = test: cells; parameters: MTT reduction cytotoxicity assay in human tumour cell lines; conditions: Homo sapiens, HeLa; 48 h, MTT
Method: as §1

AN3CA (endometrial) = test: cells; parameters: MTT reduction cytotoxicity assay in human tumour cell lines; conditions: Homo sapiens, AN3-CA; 48 h, MTT
Method: as §1

IMR-32 (neuroblastoma) = test: cells; parameters: MTT reduction cytotoxicity assay in human tumour cell lines; conditions: Homo sapiens, IMR-32; 48 h, MTT
Method: as §1

C4-2 (prostate) = test: cells; parameters: MTT reduction cytotoxicity assay in human tumour cell lines; conditions: 48 h, MTT
Method: as §1

ARK1 (endometrial) = test: cells; parameters: MTT reduction cytotoxicity assay in human tumour cell lines; conditions: 48 h, MTT
Method: as §1

T1 sequence (Q13164 2-816): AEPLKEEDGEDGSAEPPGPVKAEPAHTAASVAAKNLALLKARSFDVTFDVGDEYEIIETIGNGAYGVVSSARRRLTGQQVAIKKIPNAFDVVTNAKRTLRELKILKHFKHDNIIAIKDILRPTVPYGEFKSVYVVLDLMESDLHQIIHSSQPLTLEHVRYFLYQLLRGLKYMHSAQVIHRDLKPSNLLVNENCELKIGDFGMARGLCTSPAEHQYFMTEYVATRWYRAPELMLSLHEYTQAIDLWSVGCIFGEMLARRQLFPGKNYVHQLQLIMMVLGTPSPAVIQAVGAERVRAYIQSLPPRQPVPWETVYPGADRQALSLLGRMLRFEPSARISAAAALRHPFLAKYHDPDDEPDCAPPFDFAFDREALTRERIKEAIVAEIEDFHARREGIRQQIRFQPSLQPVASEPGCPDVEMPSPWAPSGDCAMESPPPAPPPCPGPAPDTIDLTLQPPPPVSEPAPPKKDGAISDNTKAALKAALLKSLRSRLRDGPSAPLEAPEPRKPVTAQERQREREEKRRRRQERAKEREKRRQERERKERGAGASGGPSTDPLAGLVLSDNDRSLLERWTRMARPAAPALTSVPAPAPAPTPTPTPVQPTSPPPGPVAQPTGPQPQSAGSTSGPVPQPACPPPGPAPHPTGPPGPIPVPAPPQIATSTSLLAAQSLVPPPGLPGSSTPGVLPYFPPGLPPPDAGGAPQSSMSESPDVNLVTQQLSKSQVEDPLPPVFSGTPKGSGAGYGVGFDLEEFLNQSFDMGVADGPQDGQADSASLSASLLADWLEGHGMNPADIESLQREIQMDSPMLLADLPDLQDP

IC50 (ERK5 [1]): 572 ± 51 nM
IC50 (ERK5 [2]): ~90 nM
Structure (SMILES): CCC(C)N1c2ccccc2C(=O)N(C)c2cnc(Nc3ccc(C(=O)N4CCC(N5CCN(C)CC5)CC4)cc3OC)nc21 (stereo not shown) [JWG-071]
IC50 (LN-18 (glioblastoma)): 2900 ± 400 nM
IC50 (SH-SY5Y (neuroblastoma)): 4200 ± 1400 nM
IC50 (Ishikawa (endometrial)): 3200 ± 800 nM
IC50 (Hela (cervical)): 2900 ± 700 nM
IC50 (AN3CA (endometrial)): 3300 ± 600 nM
IC50 (IMR-32 (neuroblastoma)): 1900 ± 300 nM
IC50 (C4-2 (prostate)): 2200 ± 300 nM
IC50 (ARK1 (endometrial)): 2700 ± 200 nM
